Laboratory results published in patent US20230278972A1, “SUBSTITUTED HALOALKYL SULFONANILIDE HERBICIDES” (FMC Corporation, priority 2020, published 2023).

Tests used:
Assay type in all cases: in vivo
[1] = system: Pigweed, Palmer (palmer amaranth, palmer pigweed, Amaranthus palmeri); test: Test A1 preemergence, Pigweed, Palmer
Outline: (§1)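 Test compounds were formulated in a non-phytotoxic solvent mixture containing a surfactant. For preemergence, seeds sown in a loam soil–sand blend received a directed soil spray. For postemergence, potted plants in the same soil, 2 to 10 cm tall at the one- to two-leaf stage, were sprayed.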

[2] = system: Ryegrass, Italian (Italian ryegrass, Lolium multiflorum); test: Test A1 preemergence, Ryegrass, Italian
Outline: as §1

soybean (Glycine max) = test: Test A1 preemergence, soybean
Outline: as §1

corn (Zea mays) = test: Test A1 postemergence, corn; conditions: Postemergence
Outline: as §1

[3] = system: wheat (Triticum aestivum); test: Test A1 postemergence, wheat; conditions: Postemergence
Outline: (§2)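 Seeds were first planted into a blend of loam soil and sand and given a preemergence directed soil spray. In parallel, pots of the same soil were sown for postemergence application once plants reached 2 to 10 cm and the one- to two-leaf stage. Both used surfactant-containing non-phytotoxic solvent formulations.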

[4] = system: galium (catchweed bedstraw, Galium aparine); test: Test A1 postemergence, galium; conditions: Postemergence
Outline: as §2

[5] = system: ducksalad (Heteranthera limosa); test: Test B1 flooded paddy test, ducksalad; conditions: 250 g ai/ha, Flood, applied to paddy water, 2-leaf stage, visually evaluated after 10 to 14 days
Description: A dash (-) response means no test result.

[6] = 31 g ai/ha, 0 to 100 scale (0 no effect, 100 complete control)
[7] = 125 g ai/ha, 0 to 100 scale, 0 no effect, 100 complete control
[8] = 31 g ai/ha, 0 to 100 scale (0 no effect, 100 complete control), 10 days

SMILES | Plant response rating, Pigweed, Palmer [1, 6] | Plant response rating, Pigweed, Palmer [1, 7] | Plant response rating, Ryegrass, Italian [2, 6] | Plant response rating, Ryegrass, Italian [2, 7] | Plant response rating, Soybean (soybean (Glycine max); [6]) | Plant response rating, Soybean (soybean (Glycine max); [7]) | Plant response rating, Corn (corn (Zea mays); [8]) | Plant response rating, Corn (corn (Zea mays); 125 g ai/ha, 0 to 100 scale) | Plant response rating, Wheat [3, 8] | Plant response rating, Wheat ([3]; 125 g ai/ha, 0 to 100 scale) | Plant response rating, Galium [4, 8] | Plant response rating, Galium ([4]; 125 g ai/ha, 0 to 100 scale) | Plant response rating, Ducksalad (0 to 100 scale, 0 is no effect, 100 is complete control) [5]
Cc1c(NS(=O)(=O)C(F)(F)F)cc(C2=NOC3CCCC23)c(C)c1C (centres unmarked) [Compound 335] | 100 | 100 | 0 | 60 | 30 | 40 | 0 | 0 | 0 | 0 | 50 | 80 | 70
Cc1c(NS(=O)(=O)C(F)(F)F)cc(C(=O)N(C)C)c(C)c1C [Compound 288] | 50 | 70 | 0 | 0 | 30 | 40 | 0 | 10 | 0 | 10 | 0 | 0 | 60
Cc1cc(C)c(N(COC(=O)C(C)C)S(=O)(=O)C(F)(F)F)cc1C1=NOC2CCCC12 (centres unmarked) [Compound 308] | 40 | 70 | 60 | 90 | 0 | 30 | 0 | 30 | 10 | 50 | 60 | 90 | 90
Cc1c(NS(=O)(=O)C(F)(F)F)cc(C(=O)N2CC(C)OC(C)C2)c(C)c1C (centres unmarked) [Compound 327] | 90 | 90 | 40 | 50 | 30 | 90 | 10 | 40 | 0 | 50 | 100 | 100 | 85
CCOC(=O)N(c1cc(C(=O)N2C[C@@H](C)O[C@@H](C)C2)c(C)c(C)c1C)S(=O)(=O)C(F)(F)F [Compound 332] | 60 | 90 | 0 | 20 | 20 | 70 | 0 | 50 | 10 | 50 | 80 | 90 | 80
Cc1cc(C)c(N(COC(=O)C(C)(C)C)S(=O)(=O)C(F)(F)F)cc1C(=O)N1CCOCC1 [Compound 362] | 10 | 80 | 30 | 70 | 10 | 40 | 0 | 40 | 40 | 60 | 60 | 80 | 50
Cc1cc(C)c(C2=NOC3CCCCCC23)cc1NS(=O)(=O)C(F)(F)F (centres unmarked) [Compound 292] | 60 | 60 | 60 | 100 | 0 | 40 | 0 | 0 | 0 | 70 | 80 | 80 | 95
Cc1c(C(=O)N2CCC(Cl)CC2)cc(N(COC(=O)C(C)(C)C)S(=O)(=O)C(F)(F)F)c(C)c1C [Compound 359] | 0 | 20 | 0 | 0 | 0 | 30 | 0 | 0 | 0 | 30 | 50 | 80 | 25
Cc1cc(F)c(C2=NOC3CCCC23)cc1NS(=O)(=O)C(F)(F)F (centres unmarked) [Compound 310] | 0 | 70 | 40 | 50 | 0 | 0 | 0 | 0 | 0 | 20 | 0 | 0 | 0
CCc1cc(C)c(NS(=O)(=O)C(F)(F)F)cc1C1=NOC2CCCC12 (centres unmarked) [Compound 305] | 40 | 60 | 40 | 90 | 0 | 40 | 0 | 0 | 50 | 60 | 50 | 60 | 90
Cc1c(NS(=O)(=O)C(F)(F)F)cc(C(=O)N2CCC(F)(F)CC2)c(C)c1C [Compound 357] | 40 | 100 | 0 | 30 | 0 | 20 | 0 | 0 | 0 | 0 | 90 | 100 | 60
Cc1cc(C)c(N(COC(=O)OC(C)(C)C)S(=O)(=O)C(F)(F)F)cc1C1=NOC2CCCC12 (centres unmarked) [Compound 316] | 40 | 50 | 30 | 50 | 0 | 0 | 0 | 0 | 10 | 40 | 40 | 50 | 90
Cc1cc(C)c(N(COC(=O)C(C)(C)C)S(=O)(=O)C(F)(F)F)cc1C(=O)N1CCC(C)CC1 [Compound 353] | 30 | 40 | 0 | 0 | 10 | 30 | 0 | 0 | 20 | 50 | 50 | 70 | 65
Cc1cc(C2CC2)c(NS(=O)(=O)C(F)(F)F)cc1C1=NOC2(CCCC2)C1 [Compound 313] | 0 | 20 | 30 | 50 | 0 | 0 | 0 | 0 | 0 | 0 | 0 | 30 | 0
Cc1cc(C)c(-n2nccc(C)c2=O)cc1NS(=O)(=O)C(F)(F)F [Compound 281] | 0 | 40 | 0 | 40 | 0 | 80 | 0 | 0 | 0 | 20 | 0 | 0 | 0
Cc1cc(C)c(N(S(=O)(=O)C(F)(F)F)S(=O)(=O)C(F)(F)F)cc1C1=NOC2COCC12 (centres unmarked) [Compound 296] | 10 | 80 | 0 | 90 | 20 | 30 | 0 | 0 | 0 | 30 | 50 | 80 | 20
Cc1c(C(=O)N(C)C)cc(NS(=O)(=O)C(F)(F)F)c(Cl)c1F [Compound 320] | 50 | 100 | 90 | 90 | 20 | 40 | 0 | 0 | 0 | 30 | 70 | 90 | 60
